The source of these data is patent US20030232986A1, “Inhibitors of caspases” (Vertex Pharmaceuticals Incorporated, priority 1998, published 2003).

The assay concerns the target T1, Caspase-1 (Homo sapiens, UniProt P29466).
T1 sequence (P29466 120-297 limits assumed): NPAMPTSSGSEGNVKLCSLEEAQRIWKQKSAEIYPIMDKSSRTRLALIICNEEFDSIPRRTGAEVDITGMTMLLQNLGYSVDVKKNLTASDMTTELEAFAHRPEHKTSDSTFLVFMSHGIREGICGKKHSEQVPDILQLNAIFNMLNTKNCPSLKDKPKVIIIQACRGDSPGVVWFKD
T1 sequence (P29466 317-404 limits assumed): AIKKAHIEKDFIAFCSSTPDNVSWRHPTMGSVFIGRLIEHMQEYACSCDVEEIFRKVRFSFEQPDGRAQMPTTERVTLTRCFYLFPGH
Briefly: Caspase-1 enzyme inhibition (Ki). It counts as biochemical. The method, then:
Ki values for test compounds with the various caspases were obtained by the method of Margolin et al. (J. Biol. Chem., 272 pp. 7223-7228 (1997)). Assays were performed in 10 mM Tris (Sigma Corp, St Louis Mo.) pH 7.5, 1 mM Dithiothreitol (DTT, Research Organic INC, Cleveland, Ohio) and 0.1% CHAPS (Pierce, Rockford Ill.) at 37° C. For caspase-3, a solution of 8% glycerol was added to the assay buffer to improve enzyme stability. A 65 μL aliquot of the assay buffer and 5 μL aliquot of the appropriate dilutions of inhibitor in DMSO where pipetted into a 96 well plate, treated with 10 μL of caspase, then diluted in assay buffer (0.5-40 nM active protein by active site titration). A control containing DMSO but no compound was included for each determination. The plates were then incubated for 15 minutes at 37° C., before addition of the appropriate substrate (20 μL, final concentration 1-4×KM, final assay volume 100 μL) to initiate the reaction. Reaction rates were measured at 37° C. either by following the time dependant increase in absorbance at 405 nm (for the pNA substrates) or in fluorescence (Ex 390, Em 460) (for the AMC substrates). The rates obtained were plotted against inhibitor concentration and the data fit to the Morrison tight-binding equation for competitive inhibitors (Morrison, J. F., Biochem. Biophys. Acta, 185 pp. 269-286 (1969)). The substrates used for the individual assays were as follows:
Caspase-1 Suc-YVAD-pNA (Bachem, King of Prussia, Pa.) (final concentration in the assay 80 μM),

Setting [1] is: substrate Suc-YVAD-pNA 80 μM, 37° C., pH 7.5.

Where two headings read alike, the source gives them in different places. *1 amine or outer side, *2 acyl side, *3 side chain or, on linkers, in order; H or OH if unused. Where a SMILES comes first, the peptide text is derived from it. [ ]: non-standard residue; d: D form. The star is where a group is joined. 4Abz = Nc1ccc(C(=O)O)cc1; CO = O=C([*:1])[*:2]; NHPh = c1ccc(N*)cc1

With `COc1ccc(C(=O)NC(C(=O)N2N=C(C(C)(C)C)SC2C(=O)NC(C=O)CC(=O)O)C(C)C)cc1` (single isomer, unassigned) [Example 46a, 3-({5-tert-butyl-3-[2-(4-methoxy-benzoylamino)-3-methyl-butyryl]-2,3-dihydro-[1,3,4]thiadiazole-2-carbonyl)-amino)-4-oxo-butyric acid], the Ki (commonly a dissociation constant, usually derived from enzyme kinetics or from competition with a known ligand) under setting [1] is > 1000 nM.
Turning to `Cc1onc(-c2c(F)cccc2Cl)c1C(=O)N[C@H](C(=O)N1CCC[C@H]1C(=O)N[C@H](C=O)CC(=O)O)C(C)C` [Example 5ae], the Ki lay within 10 to 1000 nM. Besides, under setting [1], the Ki fell in the range of 10 to 1000 nM.
The molecule `CC(=O)N[C@H](Cc1c[nH]c2ccccc12)C(=O)N[C@H](C(=O)N1CCC[C@H]1C(=O)N[C@H](C=O)CC(=O)O)C(C)C` [Example 5ah] (Ac-[dW]VPD-aldehyde) displayed an inhibition constant (Ki) of 10 to 1000 nM. Besides, under setting [1], the Ki lay within 10 to 1000 nM.
Under setting [1], `CC(C)[C@H](NC(=O)Cc1ccc(Cl)c(Cl)c1)C(=O)N1CCC[C@H]1C(=O)N[C@H](C=O)CC(=O)O` [Example 5an] displayed an inhibition constant Ki of 10 to 1000 nM.
Same read-out and setting: the result for `Cc1ccn2c(=O)c(C(=O)N[C@H](C(=O)N3CCC[C@H]3C(=O)N[C@H](C=O)CC(=O)O)C(C)C)cnc2c1` [Example 5ap] reads 10 to 1000 nM.
As for `CC(C)[C@H](NC(=O)c1c(-c2ccccc2)nnc2ccccc12)C(=O)N1CCC[C@H]1C(=O)N[C@H](C=O)CC(=O)O` [Example 5bc], the Ki under setting [1] was in the range of 10 to 1000 nM.
`COc1ccc(CCC(=O)N[C@H](C(=O)N2CCC[C@H]2C(=O)N[C@H](C=O)CC(=O)O)C(C)C)cc1OC` [Example 5o] registered a Ki of 10 to 1000 nM. This molecule also had a Ki under setting [1] of 10 to 1000 nM.
In the case of `CC(C)[C@H](NC(=O)C(c1ccc(Cl)cc1)c1ccc(Cl)cc1)C(=O)N1CCC[C@H]1C(=O)N[C@H](C=O)CC(=O)O` [Example 5p], the Ki fell in the range of 10 to 1000 nM. The Ki under setting [1] is 10 to 1000 nM.
`CC(C)[C@H](NC(=O)C(c1ccccc1)c1ccccc1)C(=O)N1CCC[C@H]1C(=O)N[C@H](C=O)CC(=O)O` [Example 5q] registered a Ki of 10 to 1000 nM. For the same molecule, the Ki under setting [1] was 10 to 1000 nM.
For the molecule `CC(C)[C@H](NC(=O)C1(c2ccccc2)CCCC1)C(=O)N1CCC[C@H]1C(=O)N[C@H](C=O)CC(=O)O` [Example 5t], the Ki was > 1000 nM. Also, the Ki under setting [1] was > 1000 nM.
Take `C[C@H](NS(=O)(=O)c1ccccc1)C(=O)N1CCC[C@H]1C(=O)N[C@H](C=O)CC(=O)O` [Example 7ae]: the Ki under setting [1] lay in the range of 10 to 1000 nM.
Turning to `C[C@H](NC(=O)Nc1ccccc1)C(=O)N1CCC[C@H]1C(=O)N[C@H](C=O)CC(=O)O` [Example 7af] ({NHPh-CO}-Ala-Pro-Asp-aldehyde), the Ki under setting [1] is 10 to 1000 nM.
Same read-out and setting: the same measure for `C[C@H](NC(=O)Oc1ccccc1)C(=O)N1CCC[C@H]1C(=O)N[C@H](C=O)CC(=O)O` [Example 7ag]: 10 to 1000 nM.
Still for that read-out and setting: the result for `C[C@H](NC(=O)c1ccc(F)c(F)c1)C(=O)N1CCC[C@H]1C(=O)N[C@H](C=O)CC(=O)O` [Example 7al] reads 10 to 1000 nM.
The same measure, in the same setting: the result for `C[C@H](NC(=O)c1ccc(N)cc1)C(=O)N1CCC[C@H]1C(=O)N[C@H](C=O)CC(=O)O` [Example 7aq] (H-[4Abz]APD-aldehyde) reads 10 to 1000 nM.
`C[C@H](NC(=O)c1ccc(OC(F)(F)F)cc1)C(=O)N1CCC[C@H]1C(=O)N[C@H](C=O)CC(=O)O` [Example 7i] registered a Ki under setting [1] of 10 to 1000 nM.
Turning to `CC(=O)N(C)c1ccc(C(=O)N[C@@H](C)C(=O)N2CCC[C@H]2C(=O)N[C@H](C=O)CC(=O)O)cc1` [Example 7j], the Ki under setting [1] is > 1000 nM.
The same measure, in the same setting: the result for `Cc1nc(C)c(C(=O)N[C@@H](C)C(=O)N2CCC[C@H]2C(=O)N[C@H](C=O)CC(=O)O)s1` [Example 7r] reads 10 to 1000 nM.
On the same count and under the same terms, the result for `CC(C)[C@H](NC(=O)c1ccc(N)c(Cl)c1)C(=O)N1CCN(C)C[C@H]1C(=O)N[C@H](C=O)CC(=O)O` [Example 17a] reads 10 to 1000 nM; that for `C[C@H](NC(=O)C(=O)c1ccccc1)C(=O)N1CC(F)(F)C[C@H]1C(=O)N[C@H](C=O)CC(=O)O` [Example 27c], 10 to 1000 nM; that for `Cc1cc(C(=O)N[C@@H](C)C(=O)N2CC(F)(F)C[C@H]2C(=O)N[C@H](C=O)CC(=O)O)cc(C)c1O` [Example 27j], 10 to 1000 nM.
`CC(=O)Nc1c(Cl)cc(C(=O)N[C@@H](C)C(=O)N2CC(F)(F)C[C@H]2C(=O)N[C@H](C=O)CC(=O)O)cc1Cl` [Example 27k] showed a Ki under setting [1] of 10 to 1000 nM.
The same measure, in the same setting: the result for `CC(C)[C@H](NC(=O)c1cccc2ccccc12)C(=O)N[C@@H](C)C(=O)N[C@H](C=O)CC(=O)O` [Example 29f] reads < 10 nM; that for `CC(C)C[C@@H](C(=O)N[C@H](C=O)CC(=O)O)N1CC[C@@H](NC(=O)c2nccc3ccccc23)C1=O` [Example 32a], > 1000 nM.
On the same count and under the same terms, the result for `Cc1cc(C(=O)N[C@@H]2CCN([C@@H](CC(C)C)C(=O)N[C@H](C=O)CC(=O)O)C2=O)cc(C)c1O` [Example 32b] reads > 1000 nM.
As to `CC(C)C[C@@H](C(=O)N[C@H](C=O)CC(=O)O)N1CC[C@@H](NC(=O)c2ccc3[nH]nnc3c2)C1=O` [Example 32c], under setting [1], the Ki is > 1000 nM.
Still for that read-out and setting: the result for `CC(C)C[C@@H](C(=O)N[C@H](C=O)CC(=O)O)N1CC[C@@H](NC(=O)c2c(Cl)cccc2Cl)C1=O` [Example 32e] reads 10 to 1000 nM; that for `CN(NC(=O)N1CCCC1C(=O)NC(C=O)CC(=O)O)C(=O)c1nccc2ccccc12` (stereo not drawn) [Example 34, 3-({1-[N-(isoquinoline-1-carbonyl)-N-methyl-hydrazinocarbonyl]-pyrrolidine-2-carbonyl}-amino)-4-oxo-butyric acid], > 1000 nM; that for `CC(Nc1ccccc1)C(=O)N1CCCC1C(=O)NC(C=O)CC(=O)O` (stereo not drawn) [Example 121, 4-Oxo-3-{[1-(2-phenylamino-propionyl)-pyrrolidine-2-carbonyl]-amino}-butyric acid], > 1000 nM.
Still for that read-out and setting: the result for `C[C@H](NC(=O)c1cc(F)c(N(C)C)c(F)c1)C(=O)N1CCC[C@H]1C(=O)N[C@H](C=O)CC(=O)O` [Example 122n, 3-({1-[2-(4-Dimethylamino-3,5-difluoro-benzoylamino)-propionyl]-pyrrolidine-2-carbonyl}-amino)-4-oxo-butyric acid] reads 10 to 1000 nM.
For `C[C@H](NC(=O)c1ccc(N)c(Cl)c1)C(=O)N1CCC[C@@H]1C(=O)N[C@H](C=O)CC(=O)O` [Example 122o, 3-({1-[2-(4-Amino-3-chloro-benzoylamino)-propionyl]-pyrrolidine-2-carbonyl}-amino)-4-oxo-butyric acid], the Ki under setting [1] is > 1000 nM.
`CCC(=O)Nc1ccc(C(=O)N[C@@H](C)C(=O)N2CCC[C@H]2C(=O)N[C@H](C=O)CC(=O)O)cc1Cl` [Example 122t, 3-({1-[2-(3-Chloro-4-propionylamino-benzoylamino)-propionyl]-pyrrolidine-2-carbonyl}-amino)-4-oxo-butyric acid] showed a Ki under setting [1] of 10 to 1000 nM.
`C[C@H](NC(=O)c1ccc(NC(=O)Cc2ccccc2)c(Cl)c1)C(=O)N1CCC[C@H]1C(=O)N[C@H](C=O)CC(=O)O` [Example 122u, 3-({1-[2-(3-Chloro-4-phenylacetylamino-benzoylamino)-propionyl]-pyrrolidine-2-carbonyl}-amino)-4-oxo-butyric acid]: under setting [1], the Ki is < 10 nM.
On the same count and under the same terms, the result for `CC(C)CC(=O)Nc1ccc(C(=O)N[C@@H](C)C(=O)N2CCC[C@H]2C(=O)N[C@H](C=O)CC(=O)O)cc1Cl` [Example 122v, 3-[(1-{2-[3-Chloro-4-(3-methyl-butyrylamino)-benzoylamino]-propionyl}-pyrrolidine-2-carbonyl}-amino]-4-oxo-butyric acid] reads 10 to 1000 nM; that for `COc1c(C(=O)NC(C)C(=O)N2CC(F)(F)CC2C(=O)NC(C=O)CC(=O)O)ccc(NC(C)=O)c1Cl` (stereo not drawn) [Example 123c, 3-({1-[2-(4-Acetylamino-3-chloro-2-methoxy-benzoylamino)-propionyl]-4,4-difluoro-pyrrolidine-2-carbonyl)-amino)-4-oxo-butyric acid], 10 to 1000 nM.
Still for that read-out and setting: the same measure for `Nc1ccc(C(=O)NCC(=O)N2CCC[C@H]2C(=O)N[C@H](C=O)CC(=O)O)cc1Cl` [Example G1, 3-({1-[(4-Amino-3-chloro-benzoylamino)-acetyl]-pyrrolidine-2-carbonyl}-amino)-4-oxo-butyric acid]: > 1000 nM.
